Test results taken from US8778975B2, “Helicobacter pylori eradicating agent having inhibitory activity on gastric acid secretion” (Link Geonomics, Inc., priority 2006, dated 2014).
“And” between values parts separate entries of the source, which are not always exact repeats. Identical values can stand only once. Like-named read-outs stand apart in the source and are kept apart here.

Experiments:
[1] = Stability test in acidic hydrochloric acid solution (pH 2), residual ratio by HPLC; format: physicochemical; conditions: for Residual ratio at pH 2: pH 2 HCl, 37° C.; for Stability in acid (residual ratio at pH = 2: %): Table 8 summary, time not stated
Description: A test for the stability of thioether compounds (hereinafter, referred to SH-form) and sulfoxide compounds (hereinafter, referred to SO-form) at pH 2.0 was carried out. (Method) Each of the specimens produced in Examples 1 to 3 and Reference Examples 6 to 8 (sulfinyl products of Examples 1 to 3) was maintained in a solution adjusted to pH 2 with 0.5 or 1.0 mmol/L HCl (37° C.) for a predetermined time period. Subsequently, the solution was adjusted to pH 8 with triethylamine, and then an HPLC analysis was performed to calculate the residual ratio.

[2] = tested on: Helicobacter pylori bacteria (ATCC 43504); assay: Antiulcer action and bacteria eradicating action in Helicobacter pylori-infected Mongolian gerbils; format: in vivo; conditions: for Number of Bacteria (average) (log CFU): gastric mucosa; for responders at 10 mg/kg / responders at 30 mg/kg: Helicobacter pylori
Description: Mongolian gerbils were experimentally infected with Helicobacter pylori bacteria, and the antiulcer action and the Helicobacter pylori bacteria eradicating action of the compounds of the present invention were tested.
Male Mongolian gerbils (30 to 40 g), five animals in each group, were orally inoculated with Helicobacter pylori bacteria (ATCC 43504) at 1.6×10^7 CFU/0.5 ml/mouse, and bred for one week, and then drug was administered two times a day for two weeks. Thereafter, the […] were bred for three weeks, and then the rats were fasted for 18 hours and subjected to abdominal section, followed by autopsy. The severity of gastric ulcer, the number of Helicobacter pylori bacteria in the gastric mucosa, and the antibody titer were measured.

[3] = tested on: Helicobacter pylori standard strain ATCC 43504; assay: Antibacterial potency test (MIC), Columbia agar medium, Pharmacological Test Example 1; format: cell-based
Description: A test was conducted to see whether there is a difference in the anti-Helicobacter pylori activity depending on the number of carbon atoms of the linear alkyl group for a substituent at the 4-position of the pyridine ring.
For the bacterium Helicobacter pylori, a standard strain ATCC 43504 was used to perform in vitro tests in Columbia agar medium. Each of the specimens was dissolved in a 1% DMSO solution, and the bacteria were cultured at 37° C. and pH 7.0 for 3 days. On the 4th day, the minimum growth inhibitory concentration (MIC, μg/ml) was determined.

[4] = tested on: Mycobacterium ranae (ATCC 110); assay: Antibacterial test (MIC), Gram-positive bacteria; format: cell-based; conditions: ATCC110, read-out: MIC
Source text: (§1) As for the Gram-negative bacteria, E. coli (ATCC 10536, ATCC 25922), Klebsiella pneumonia (ATCC 10031), Proteus vulgaris (ATCC 13315), Pseudomonas aeruginosa (ATCC 9027), and Salmonella typhimurium (ATCC 13311) were used, and as for the Gram-positive bacteria, Staphylococcus aureus, MRSA (ATCC 33591), Staphylococcus epidermidis (ATCC 12228), Streptococcus pneumonia (ATCC 6301), Mycobacterium ranae (ATCC 110), and Enterococcus faecalis (VRE, ATCC 51575) were used. The various bacteria were cultured at 37° C. for 20 to 48 hours by conventional methods, and the minimum growth inhibitory concentration (MIC, μg/ml) was determined. Each of the specimens was dissolved in a 1% DMSO solution. Furthermore, amoxicillin, clarithromycin and gentamycin were used as control drugs of antibacterial substance.

[5] = tested on: Staphylococcus aureus, MRSA (ATCC 33591); assay: Antibacterial test (MIC), Gram-positive bacteria; format: cell-based; conditions: read-out: MIC
Source text: as §1

[6] = tested on: Staphylococcus epidermidis (ATCC 12228); assay: Antibacterial test (MIC), Gram-positive bacteria; format: cell-based; conditions: ATCC12228, read-out: MIC
Source text: as §1

[7] = tested on: Streptococcus pneumonia (ATCC 6301); assay: Antibacterial test (MIC), Gram-positive bacteria; format: cell-based; conditions: Streptococcus pneumoniae, ATCC6301
Source text: as §1

[8] = tested on: Enterococcus faecalis (VRE, ATCC 51575); assay: Antibacterial test (MIC), Gram-positive bacteria; format: cell-based
Source text: as §1

gastric acid secretion = assay: Gastric acid secretion inhibiting action, pylorus ligation in rats; format: in vivo, SD rats; conditions: 30 mg/kg to the duodenum, 4 hours after pylorus ligation, average
Description: The gastric acid secretion inhibiting action of the compounds of the present invention was tested. A group of five animals of male SD rats (about 200 g) were used, and the medicaments were respectively dissolved in 0.5% CMC and were all administered to the duodenum respectively at 30 mg/kg. The rats were fasted overnight from the day before the administration of the test substance to the point of administration, and pylorus ligation was performed.

[9] = tested on: Pseudomonas aeruginosa (ATCC 9027); assay: Antibacterial test (MIC), Gram-negative bacteria; format: cell-based; conditions: ATCC9027, read-out: MIC
Source text: as §1

[10] = tested on: Proteus vulgaris (ATCC 13315); assay: Antibacterial test (MIC), Gram-negative bacteria; format: cell-based; conditions: ATCC13315, read-out: MIC
Source text: as §1

[11] = tested on: Escherichia coli (ATCC 25922); assay: Antibacterial test (MIC), Gram-negative bacteria; format: cell-based; conditions: ATCC25922, read-out: MIC
Source text: as §1

[12] = tested on: Escherichia coli (ATCC 10536); assay: Antibacterial test (MIC), Gram-negative bacteria; format: cell-based; conditions: ATCC10536, read-out: MIC
Source text: as §1

[13] = tested on: Klebsiella pneumonia (ATCC 10031); assay: Antibacterial test (MIC), Gram-negative bacteria; format: cell-based; conditions: Klebsiella pneumoniae, ATCC10031, read-out: MIC
Source text: as §1

[14] = tested on: Salmonella typhimurium (ATCC 13311); assay: Antibacterial test (MIC), Gram-negative bacteria; format: cell-based; conditions: Salmonella enterica, read-out: MIC
Source text: as §1

[15] = tested on: clinically separated clarithromycin-resistant strains and amoxicillin-insensitive strains of Helicobacter pylori; assay: Antibacterial potency (MIC) against clarithromycin-resistant and amoxicillin-insensitive strains, Pharmacological Test Example 3; format: cell-based; conditions: Helicobacter pylori, read-out: MIC
Description: A test was conducted on the antibacterial potency of the compounds of the present invention against the clarithromycin-resistant strains and amoxicillin-insensitive strains of the bacterium Helicobacter pylori.
A test was conducted on the antibacterial potency of the compounds of the present invention, using clinically separated clarithromycin-resistant strains and amoxicillin-insensitive strains of the bacterium Helicobacter pylori. For the respective strains, in vitro tests were performed in Columbia agar medium. Each of the specimens was dissolved in a 1% DMSO solution. The bacteria were cultured at 37° C. and pH 7.0 for 3 days, and on the 4th day, the minimum growth inhibitory concentration (MIC, μg/ml) was determined.

[16] = 30 mg/kg, two times a day for two weeks
[17] = ATCC43504, 336 h, 30 mg/kg, two times a day for two weeks, read-out: Eradication rate (%)
[18] = ATCC43504, 72 h, ATCC 43504, 37° C., pH 7.0, 3 days, read-out: MIC
[19] = ATCC43504, Table 8 summary, strain not stated, read-out: Anti-HP activity (MIC: μg/mL)
[20] = ATCC43504, Table 8, amount of administration (mg) 30, read-out: HP eradication based on Mongolian gerbil infection model: Eradication rate (%)

CCCCCOc1ccnc(CSc2nc3ccccc3[nH]2)c1C [Example 1, 2-[(4-n-pentyloxy-3-methylpyridin-2-yl)-methylthio]-1H-benzimidazole]
<3 log CFU: Number of Bacteria (average) (log CFU) ([2]; 10 mg/kg) | Number of Bacteria (average) (log CFU) ([2]; 30 mg/kg)
0/5: Number of Ulcers discovered [2, 16]
> 100 µg/mL: MIC [4] | MIC [5] | MIC [6] | MIC [7] | MIC [8] | MIC [9] | MIC [10] | MIC [11] | MIC [12] | MIC [13] | MIC [14]
0.06 µg/mL: MIC ([15]; AMO-insensitive strain NO. 1) | MIC ([15]; AMO-insensitive strain NO. 2) | MIC ([15]; AMO-insensitive strain NO. 3) | MIC ([15]; AMO-insensitive strain NO. 4) | MIC ([15]; CAM-resistant strain NO. 1) | MIC ([15]; CAM-resistant strain NO. 2) | MIC ([15]; CAM-resistant strain NO. 3) | MIC ([15]; CAM-resistant strain NO. 4)
57%: Gastric acid secretion inhibiting action: Amount of gastric acid (gastric acid secretion)
82%: Gastric acid secretion inhibiting action: Amount of gastric acid secretion (gastric acid secretion)
60%: Gastric acid secretion inhibiting action: Total acidity (gastric acid secretion)
0.05: Antibody titer (average) ([2]; 30 mg/kg)
inhibited generation of ulcer and 0/5: Number of Ulcers discovered ([2]; 10 mg/kg, two times a day for two weeks)
0.1 µg/mL: MIC [3, 18] | MIC [3, 19]
100%: Residual ratio at pH 2 ([1]; 0 min) | Residual ratio at pH 2 ([1]; 30 min) | Residual ratio at pH 2 ([1]; 2 hours) | Stability in acid (residual ratio at pH = 2: %) [1] | responders at 10 mg/kg ([2]; ATCC43504, 336 h, 10 mg/kg, two times a day for two weeks, read-out: Eradication rate (%)) | responders at 30 mg/kg [2, 17] | responders at 10 mg/kg ([2]; ATCC43504, Table 8, amount of administration (mg) 10, read-out: HP eradication based on Mongolian gerbil infection model: Eradication rate (%))
0.07: Antibody titer (average) ([2]; 10 mg/kg)

CCCCCCOc1ccnc(CSc2nc3ccccc3[nH]2)c1C [Example 2, 2-[(4-n-hexyloxy-3-methylpyridin-2-yl)-methylthio]-1H-benzimidazole]
0/5: Number of Ulcers discovered [2, 16]
> 100 µg/mL: MIC [4] | MIC [5] | MIC [6] | MIC [7] | MIC [8] | MIC [9] | MIC [10] | MIC [11] | MIC [12] | MIC [13] | MIC [14]
<3 log CFU: Number of Bacteria (average) (log CFU) ([2]; 30 mg/kg)
0.1 µg/mL: MIC [3, 18] | MIC [3, 19]
0.06 µg/mL: MIC ([15]; AMO-insensitive strain NO. 1) | MIC ([15]; CAM-resistant strain NO. 1) | MIC ([15]; CAM-resistant strain NO. 2) | MIC ([15]; CAM-resistant strain NO. 3) | MIC ([15]; CAM-resistant strain NO. 4)
34%: Gastric acid secretion inhibiting action: Total acidity (gastric acid secretion)
44%: Gastric acid secretion inhibiting action: Amount of gastric acid (gastric acid secretion)
0.17: Antibody titer (average) ([2]; 30 mg/kg)
65%: Gastric acid secretion inhibiting action: Amount of gastric acid secretion (gastric acid secretion)
0.12 µg/mL: MIC ([15]; AMO-insensitive strain NO. 2) | MIC ([15]; AMO-insensitive strain NO. 3) | MIC ([15]; AMO-insensitive strain NO. 4)
100%: Residual ratio at pH 2 ([1]; 0 min) | Residual ratio at pH 2 ([1]; 30 min) | Residual ratio at pH 2 ([1]; 2 hours) | Stability in acid (residual ratio at pH = 2: %) [1] | responders at 30 mg/kg [2, 17] | responders at 30 mg/kg [2, 20]

CCCCCCCOc1ccnc(CSc2nc3ccccc3[nH]2)c1C [Example 3, 2-[(4-n-heptyloxy-3-methylpyridin-2-yl)-methylthio]-1H-benzimidazole]
100%: Residual ratio at pH 2 ([1]; 0 min) | Residual ratio at pH 2 ([1]; 30 min) | Residual ratio at pH 2 ([1]; 2 hours) | Stability in acid (residual ratio at pH = 2: %) [1] | responders at 30 mg/kg [2, 17] | responders at 30 mg/kg [2, 20]
0.12 µg/mL: MIC ([15]; AMO-insensitive strain NO. 1) | MIC ([15]; AMO-insensitive strain NO. 2) | MIC ([15]; AMO-insensitive strain NO. 3)
0.25 µg/mL: MIC ([15]; AMO-insensitive strain NO. 4)
0.1 µg/mL: MIC [3, 18] | MIC [3, 19] | MIC ([15]; CAM-resistant strain NO. 1) | MIC ([15]; CAM-resistant strain NO. 2) | MIC ([15]; CAM-resistant strain NO. 3) | MIC ([15]; CAM-resistant strain NO. 4)
0/5: Number of Ulcers discovered [2, 16]
<3 log CFU: Number of Bacteria (average) (log CFU) ([2]; 30 mg/kg)
70%: Gastric acid secretion inhibiting action: Amount of gastric acid secretion (gastric acid secretion)
> 100 µg/mL: MIC [4] | MIC [5] | MIC [6] | MIC [7] | MIC [8] | MIC [9] | MIC [10] | MIC [11] | MIC [12] | MIC [13] | MIC [14]
0.22: Antibody titer (average) ([2]; 30 mg/kg)
44%: Gastric acid secretion inhibiting action: Amount of gastric acid (gastric acid secretion) | Gastric acid secretion inhibiting action: Total acidity (gastric acid secretion)
